Experimental findings from ChEMBL document CHEMBL5537212, “Benzodioxane Carboxamide Derivatives As Novel Monoamine Oxidase B Inhibitors with Antineuroinflammatory Activity” (ACS Med Chem Lett, 2024) are described below.

SMILES strings stand for the structures.

Assay [1] concerns the target T1, Amine oxidase [flavin-containing] B (Homo sapiens, UniProt P27338).
T1 sequence (P27338 whole entry): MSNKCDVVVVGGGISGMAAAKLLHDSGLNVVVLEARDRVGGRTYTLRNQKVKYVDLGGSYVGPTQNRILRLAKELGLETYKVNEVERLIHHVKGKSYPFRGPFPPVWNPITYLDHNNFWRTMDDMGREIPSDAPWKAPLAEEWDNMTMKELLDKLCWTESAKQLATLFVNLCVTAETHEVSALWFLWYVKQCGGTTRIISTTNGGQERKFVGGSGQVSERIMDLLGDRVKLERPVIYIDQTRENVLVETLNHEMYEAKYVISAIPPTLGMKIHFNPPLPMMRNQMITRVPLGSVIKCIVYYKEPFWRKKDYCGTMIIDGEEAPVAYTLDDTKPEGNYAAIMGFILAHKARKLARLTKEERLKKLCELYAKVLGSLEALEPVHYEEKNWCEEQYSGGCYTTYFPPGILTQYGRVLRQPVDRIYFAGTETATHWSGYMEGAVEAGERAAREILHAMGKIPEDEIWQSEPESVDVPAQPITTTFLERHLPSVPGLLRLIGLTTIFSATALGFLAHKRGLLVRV
As to the kind of experiment: Inhibition of recombinant human MAO-B using benzylamine as substrate at 1 uM incubated for 20 mins by fluorescence microplate reader analysis relative to control. To be noted: read-out: INH.

Assay [2] deals with T2, Amine oxidase [flavin-containing] A (Homo sapiens, UniProt P21397).
T2 sequence (P21397 whole entry): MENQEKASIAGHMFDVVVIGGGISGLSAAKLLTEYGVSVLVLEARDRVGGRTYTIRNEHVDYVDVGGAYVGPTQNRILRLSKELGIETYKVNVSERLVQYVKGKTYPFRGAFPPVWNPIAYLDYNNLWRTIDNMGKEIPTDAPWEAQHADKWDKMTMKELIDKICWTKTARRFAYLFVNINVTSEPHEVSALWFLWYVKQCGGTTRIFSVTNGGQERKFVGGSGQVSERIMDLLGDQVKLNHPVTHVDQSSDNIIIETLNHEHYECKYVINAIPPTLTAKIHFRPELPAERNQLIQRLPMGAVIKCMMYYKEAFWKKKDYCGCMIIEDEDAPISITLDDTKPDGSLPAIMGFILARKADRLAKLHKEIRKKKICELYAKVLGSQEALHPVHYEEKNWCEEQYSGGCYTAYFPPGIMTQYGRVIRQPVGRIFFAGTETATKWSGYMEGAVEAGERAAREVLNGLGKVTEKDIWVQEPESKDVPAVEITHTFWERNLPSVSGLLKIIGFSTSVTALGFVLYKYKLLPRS
Description: Inhibition of recombinant human MAO-A incubated for 15 mins by Amplex Red reagent and horseradish peroxidase based fluorescence microplate reader analysis

In assay [3] the target is T2, Amine oxidase [flavin-containing] A. In words: Inhibition of recombinant human MAO-A at 0.1 uM incubated for 15 mins by Amplex Red reagent and horseradish peroxidase based fluorescence microplate reader analysis relative to control. To be noted: 0.25 h.

For `O=C(Nc1ccc2c(c1)OCCO2)c1ccc2c(c1)OCCO2`, the inhibition at 1 µM in assay [1] worked out at 36.1%. For the same molecule, the 50% inhibitory concentration (IC50) in assay [2] was above 40 µM.
On to `COc1ccc(NC(=O)c2ccc3c(c2)OCCO3)cc1OC`, for which the inhibition at 1 µM in assay [1] is below 5%. This molecule yielded a half-inhibitory concentration (IC50) in assay [2] above 40 µM.
Take `COc1ccc(NC(=O)c2ccc3c(c2)OCCO3)cc1Cl`: the inhibition at 1 µM in assay [1] was determined as 27.4%. In assay [2], this molecule came in with a half-inhibitory concentration (IC50) above 40 µM.
The matching figures for `O=C(Nc1ccccc1)c1ccccc1` [N-PHENYLBENZAMIDE]: below 5% and above 40 µM.
In the case of `COc1cccc(NC(=O)c2ccc3c(c2)OCCO3)c1`, the inhibition at 1 µM in assay [1] was found to be 19.7%. Moreover, the IC50 in assay [2] is above 40 µM.
Take `O=C(NCc1ccccc1)c1ccc2c(c1)OCCO2`: the inhibition at 1 µM in assay [1] was below 5%. In assay [2], this molecule came in with an IC50 above 40 µM.
Consider `O=C(Nc1ccc(Br)cc1)c1ccc2c(c1)OCCO2`, for which, in assay [2], the IC50 is above 40 µM.
With `O=C(Nc1ccc2c(c1)OCCO2)c1ccc(Cl)c(Cl)c1`, the inhibition at 1 µM in assay [1] worked out at 30.8%. The molecule further yielded a 50% inhibitory concentration (IC50) in assay [2] above 40 µM.
For the molecule `COc1ccc(NC(=O)c2ccc3c(c2)OCCO3)cc1`, the inhibition at 1 µM in assay [1] was below 5%. For the same molecule, the half-maximal inhibitory concentration (IC50) in assay [2] is above 40 µM.
In the case of `O=C(Nc1cccc(Cl)c1)c1ccccc1`, the inhibition at 1 µM in assay [1] was below 5%. In addition, the IC50 in assay [2] is above 40 µM.
Consider `O=C(Nc1ccccc1Cl)c1ccc2c(c1)OCCO2`, for which the inhibition at 1 µM in assay [1] is below 5%. In addition, the half-maximal inhibitory concentration (IC50) in assay [2] is above 40 µM.
The matching figures for `O=C(Nc1ccc(Cl)c(Cl)c1)c1ccccc1`: 40.2% and above 40 µM.
Consider `C#CCN(C)CCCOc1ccc(Cl)cc1Cl` [CLORGILINE], for which, in assay [3], the inhibition at 0.1 µM came out at 79.9%.
Turning to `O=C(Nc1ccc2[nH]ncc2c1)c1ccc2c(c1)OCCO2`, the inhibition at 1 µM in assay [1] was 13.8%. Besides, the half-inhibitory concentration (IC50) in assay [2] is above 40 µM.
For the molecule `O=C(Nc1ccccc1)c1ccc2c(c1)OCO2`, in assay [1], the inhibition at 1 µM was below 5%. Moreover, the IC50 in assay [2] was above 40 µM.
Consider `O=C(Nc1cccc(Cl)c1Cl)c1ccc2c(c1)OCCO2`, for which the inhibition at 1 µM in assay [1] worked out at 53%. The molecule also displayed an IC50 in assay [2] above 40 µM.
The matching figures for `O=C(Nc1ccccc1F)c1ccc2c(c1)OCCO2`: 19.1% and above 40 µM.

As a reminder, the IC50 is the concentration that inhibits the measured activity by half. A higher IC50 goes with a need for much substance.
